Earlier results on two compounds are cited in publication PMC11170759, “Advancing Parkinson’s Disease Diagnostics: The Potential of Arylpyrazolethiazole Derivatives for Imaging α-Synuclein Aggregates” (ACS Omega, 2024).

One data set deals with α-syn fibrils. On the set-up: method as in PMID 33369690. The settings on record: saturation binding, recombinant fibrils; cited from earlier work.
The target of the next data set is Aβ1-42 fibrils. The arrangement: method as in PMID 33369690. The settings on record: saturation binding, recombinant fibrils; read-out: Kd Aβ1-42 (reported); cited from earlier work.
The next data set deals with α-synuclein aggregates. On the set-up: method as in PMID 34577548. As to conditions: literature ligand of Figure 1; cited from earlier work.

As a reminder, the Kd is a measure of binding affinity in units of concentration. Consider `CN(C)c1ccc(-c2cc(-c3ccnc(Br)c3)[nH]n2)cc1` [MODAG-001], for which the dissociation constant (Kd) is 0.0006 ± 0.0001 µM at α-syn fibrils and 0.02 ± 0.01 µM on Aβ1-42 fibrils.

`c1ccc(-c2ccc(C3CC(c4ccc5c(c4)OCO5)=NN3)o2)cc1` (stereo not drawn) [8b]: the “reduction of ThT fluorescence” value in the data set on α-synuclein aggregates is reported as 94%.
